Measurements from patent publication US10526325B2, “Bicyclic heterocyclic derivatives” (Merck Patent GmbH, priority 2015, dated 2020).

Assays:
[1] = test system: PDH-E1alpha (pSer300) in HEK293T cells; assay: Cellular immunofluorescence assay, PDH-E1alpha (pSer300) in HEK293T cells; type: cell-based, human; settings: Homo sapiens, HEK-293T, 5 hours incubation, anti-PDH-E1alpha (pSer300) immunofluorescence, read-out: IC50 (cell data)
Method: Cellular Assay for Determination of Compound Activities
Compound activities were determined in a cellular immunofluorescence assay. Human HEK293T cells were seeded into black 384-well plates with clear bottom and grown overnight.
Next day, test compounds were added to the wells and the plates incubated for 5 hours. Following this, cells were fixed with formaldehyde, permeabilised and blocked. The primary antibody, Anti-PDH-E1alpha (pSer300), AP1064 (Merck Millipore) was added and incubated overnight in the plate wells. Next, cells were washed and the secondary antibody, Alexa Fluor 488, goat anti-rabbit ab (A-11008, Invitrogen) was added together with Hoechst 33258 (H3569, Invitrogen) and incubated for 1 hour in the plate wells. Finally, cells were washed and the plates were measured on the laser scanning cytometer acumen hci (TTpLabtech).
The raw data were normalized against a pharmacological inhibitor control and dose response curves were generated by plotting the percent effect values using the software package Genedata screener (Genedata).

[2] = molecular target: PDHK2 (Homo sapiens (Human), UniProt Q15119); assay: Biochemical activity testing of PDHK2: PDC inactivation assay; settings: human rec PDHK2, porcine heart PDC, 5 μM ATP, read-out: IC50 PDHK2 (enzyme assay)
Text: Biochemical Activity Testing of PDHK2: PDC Inactivation Assay
The biochemical activity assay for PDHK2 is based on the inactivation of PDC through phosphorylation by PDHK2. The assay is run in two steps: the enzymatic PDHK2 reaction in which isolated PDC is phosphorylated by PDHK2 with ATP as co-substrate and the PDC activity assay in which pyruvate and NAD are converted to acetyl-CoA and NADH. The PDC activity correlates to the increase in NADH and thereby is detectable directly via the increasing fluorescence signal (Exc 340 nm, Em 450 nm). Inhibition of PDHK2 results in a lower phosphorylation status and thereby a less decrease in activity of PDC and a stronger increase in NADH fluorescence signal.
The PDC inactivation assay is performed in Greiner 384-well microtiter plates and is used for high throughput screen. 4 μl of PDHK2 (human, rec, Carna Bioscience, 10 ng/μl-137 nM final concentration) and PDC (isolated from porcine heart, Sigma-Aldrich, 20 mU/ml final concentration) are incubated in the absence or presence of the test compound (10 dilution concentrations) for 30 min at room temperature in kinase buffer (15 mM potassium phosphate buffer, pH 7.0, 60 mM KCl, 1.5 mM DTT, 2.5 mM MgCl2, 0.0125% (w/v) BSA, 0.125% Pluronic F-68). The kinase reaction is started by the addition of 4 μl ATP substrate solution (fc 5 μM in kinase buffer). After 30 min incubation at 37° C. 40 μl of PDC reaction solution (100 mM Tris/HCl, pH 7.8, 0.5 mM EDTA, 1 mM MgCl2, 50 mM NaF, 0.25 mM Coenzyme A, 5 mM pyruvate, 1 mM NAD, 5 mM DTT, 1 mM thiamine pyrophosphate) is added. The first fluorescence measurement is performed on a Perkin Elmer Envision (Exc 340 nm, Em 450 nm). The reaction is incubated for 45 min at room temperature. Afterwards a second fluorescence measurement is performed and the PDC activity is calculated by the difference between both measurements. As full value for the PDHK2 assay the inhibitor-free PDHK2 reaction is used. The pharmacological zero value used is DCA (Sigma-Aldrich) in a final concentration of 3 mM. The inhibitory values […] were determined using either the program Symyx Assay Explorer® or Condosseo® from GeneData.

[3] = molecular target: human PDHK2 (12-407) (Homo sapiens (Human), UniProt Q15119); assay: Isothermal titration calorimetry (ITC) binding; settings: ITC at 30° C., pH 7.5
Method: Isothermal Titration Calorimetry
ITC measurements were performed with a VP-ITC micro calorimeter (Microcal, LLC/GE Healthcare Bio-Sciences Aft Uppsala, Sweden). In general titrations were performed by titrating the protein (50 μM) to the test compound (5 μM) in 12 μl injections. All binding experiments were carried out at 30° C. In general the test compounds were diluted form DMSO stock solutions into the measurement buffer with a maximum final concentration of 1% DMSO. The measurement buffer was 20 mM HEPES, 135 mM KCl, 1 mM TCEP, 2 mM MgCl2, 15 mM NaH2PO4, pH 7.5. The human PDHK2 (12-407) was produced in E. coli as his-tagged protein and purified by affinity chromatography. The tag was removed by side specific proteolysis. Before titration the protein buffer was changed to the measurement buffer containing the same DMSO concentration as the test compound dilution. ITC data analysis was performed using Origin 7 calorimetry software from the same supplier. For most measurements a binding model of one binding site was assumed. According to the applied mathematical model it is possible to calculate the binding constant (KA), the observed binding enthalpy (ΔH^obs) as well as the stoichiometry (N) of the formed complex.
Preceding analysis the raw data was corrected for the heats of dilution by extrapolating from the saturation value from the end of titration. In order to allow for direct comparison between the respective experimental series and protein preparations the protein concentration was corrected by referencing titrations to a well behaved standard inhibitor. The apparent stoichiometry values defined the fraction of binding competent protein and compensated for relative errors in protein concentration measurements. This corrected protein concentration was used to set up ITC experiment series with test compounds. Any deviations from ideal 1:1 stoichiometry observed here were attributed to errors in compound concentration. This nominal compound concentration was corrected as well to achieve 1:1 stoichiometry in the fit.

Compound | IC50 [1] [nM] | IC50 [2] [nM] | Kd [3] [nM]
C[C@@](O)(C(=O)N1CCc2c(cnn2-c2ccc(Cl)cc2)C1)C(F)(F)F [Compound A1, (2R)-1-[1-(4-chlorophenyl)-6,7-dihydro-4H-pyrazolo[4,3-c]pyridin-5-yl]-3,3,3-trifluoro-2-hydroxy-2-methyl-propan-1-one] | 3000 to 50000 | < 300 | < 300
C[C@@](O)(C(=O)N1CCc2c(cnn2-c2ccccc2)C1)C(F)(F)F [Compound A3, (R)-3,3,3-Trifluoro-2-hydroxy-2-methyl-1-(1-phenyl-1,4,6,7-tetrahydro-pyrazolo[4,3-c]pyridin-5-yl)-propan-1-one] | 300 to 3000 | < 300 | < 300
C[C@@](O)(C(=O)N1CCc2c(cnn2-c2ccc(F)cc2)C1)C(F)(F)F [Compound A4, (R)-3,3,3-Trifluoro-1-[1-(4-fluoro-phenyl)-1,4,6,7-tetrahydro-pyrazolo[4,3-c]pyridin-5-yl]-2-hydroxy-2-methyl-propan-1-one] | 300 to 3000 | < 300 | < 300
C[C@@](O)(C(=O)N1CCc2c(cnn2-c2ccc(F)cc2F)C1)C(F)(F)F [Compound A5, (R)-1-[1-(2,4-Difluoro-phenyl)-1,4,6,7-tetrahydro-pyrazolo[4,3-c]pyridin-5-yl]-3,3,3-trifluoro-2-hydroxy-2-methyl-propan-1-one] | 300 to 3000 | < 300 | < 300
C[C@@](O)(C(=O)N1CCc2nn(-c3ccc(F)cc3F)cc2C1)C(F)(F)F [Compound A6, (R)-1-[2-(2,4-Difluoro-phenyl)-2,4,6,7-tetrahydro-pyrazolo[4,3-c]pyridin-5-yl]-3,3,3-trifluoro-2-hydroxy-2-methyl-propan-1-one] | 3000 to 50000 | 300 to 3000 | < 300
CC(C)(C)n1ncc2c1CCN(C(=O)[C@@](C)(O)C(F)(F)F)C2 [Compound A7, (R)-1-(1-tert-Butyl-1,4,6,7-tetrahydro-pyrazolo[4,3-c]pyridin-5-yl)-3,3,3-trifluoro-2-hydroxy-2-methyl-propan-1-one] | 300 to 3000 | < 300 | < 300
CC(C)(C)n1cc2c(n1)CCN(C(=O)[C@@](C)(O)C(F)(F)F)C2 [Compound A8, (R)-1-(2-tert-Butyl-2,4,6,7-tetrahydro-pyrazolo[4,3-c]pyridin-5-yl)-3,3,3-trifluoro-2-hydroxy-2-methyl-propan-1-one] | 3000 to 50000 | 300 to 3000 | 300 to 3000
CC1CN(C(=O)[C@@](C)(O)C(F)(F)F)Cc2cnn(-c3ccc(Cl)cc3)c21 (stereo partly drawn) [Compound A9, (2R)-1-[1-(4-chlorophenyl)-7-methyl-6,7-dihydro-4H-pyrazolo[4,3-c]pyridin-5-yl]-3,3,3-trifluoro-2-hydroxy-2-methyl-propan-1-one] | < 300 | < 300 | < 300
C[C@@H]1CN(C(=O)[C@@](C)(O)C(F)(F)F)Cc2cnn(-c3ccc(Cl)cc3)c21 [Compound A10, (R)-1-[(R)-1-(4-Chloro-phenyl)-7-methyl-1,4,6,7-tetrahydro-pyrazolo[4,3-c]pyridin-5-yl]-3,3,3-trifluoro-2-hydroxy-2-methyl-propan-1-one] | < 300 | < 300 | < 300
C[C@H]1CN(C(=O)[C@@](C)(O)C(F)(F)F)Cc2cnn(-c3ccc(Cl)cc3)c21 [Compound A11, (R)-1-[(S)-1-(4-Chloro-phenyl)-7-methyl-1,4,6,7-tetrahydro-pyrazolo[4,3-c]pyridin-5-yl]-3,3,3-trifluoro-2-hydroxy-2-methyl-propan-1-one] | 300 to 3000 | 3000 to 50000 | 300 to 3000
CC1CN(C(=O)[C@@](C)(O)C(F)(F)F)Cc2cnn(-c3ccc(F)cc3)c21 (stereo partly drawn) [Compound A12, (2R)-3,3,3-trifluoro-1-[1-(4-fluorophenyl)-7-methyl-6,7-dihydro-4H-pyrazolo[4,3-c]pyridin-5-yl]-2-hydroxy-2-methyl-propan-1-one] | < 300 | < 300 | < 300
CC1CN(C(=O)[C@@](C)(O)C(F)(F)F)Cc2cn(-c3ccc(F)cc3)nc21 (stereo partly drawn) [Compound A13, (2R)-3,3,3-trifluoro-1-[2-(4-fluorophenyl)-7-methyl-6,7-dihydro-4H-pyrazolo[4,3-c]pyridin-5-yl]-2-hydroxy-2-methyl-propan-1-one] | 3000 to 50000 | 300 to 3000 | 300 to 3000
C[C@@H]1CN(C(=O)[C@@](C)(O)C(F)(F)F)Cc2cnn(-c3ccc(F)cc3)c21 [Compound A14, (R)-3,3,3-Trifluoro-1-[(R)-1-(4-fluoro-phenyl)-7-methyl-1,4,6,7-tetrahydro-pyrazolo[4,3-c]pyridin-5-yl]-2-hydroxy-2-methyl-propan-1-one] | < 300 | < 300 | < 300
CC1CN(C(=O)[C@@](C)(O)C(F)(F)F)Cc2cnn(-c3ccccc3)c21 (stereo partly drawn) [Compound A16, (R)-3,3,3-Trifluoro-2-hydroxy-2-methyl-1-(7-methyl-1-phenyl-1,4,6,7-tetra-hydro-pyrazolo[4,3-c]pyridin-5-yl)-propan-1-one] | < 300 | < 300 | < 300
CC1CN(C(=O)[C@@](C)(O)C(F)(F)F)Cc2cn(-c3ccccc3)nc21 (stereo partly drawn) [Compound A17, (R)-3,3,3-Trifluoro-2-hydroxy-2-methyl-1-(7-methyl-2-phenyl-2,4,6,7-tetra-hydro-pyrazolo[4,3-c]pyridin-5-yl)-propan-1-one] | 300 to 3000 | 300 to 3000 | 300 to 3000
C[C@@H]1CN(C(=O)[C@@](C)(O)C(F)(F)F)Cc2cnn(-c3ccccc3)c21 [Compound A18, (R)-3,3,3-Trifluoro-2-hydroxy-2-methyl-1-((R)-7-methyl-1-phenyl-1,4,6,7-tetrahydro-pyrazolo[4,3-c]pyridin-5-yl)-propan-1-one] | < 300 | < 300 | < 300
C[C@@](O)(C(=O)N1CCc2c(ncn2-c2ccc(F)cc2)C1)C(F)(F)F [Compound A44, (R)-3,3,3-Trifluoro-1-[1-(4-fluoro-phenyl)-1,4,6,7-tetrahydro-imidazo[4,5-c]pyridin-5-yl]-2-hydroxy-2-methyl-propan-1-one] | 3000 to 50000 | 300 to 3000 | –
C[C@@](O)(C(=O)N1CCc2c(ncn2-c2ccc(Cl)cc2)C1)C(F)(F)F [Compound A45, (R)-1-[1-(4-Chloro-phenyl)-1,4,6,7-tetrahydro-imidazo[4,5-c]pyridin-5-yl]-3,3,3-trifluoro-2-hydroxy-2-methyl-propan-1-one] | 3000 to 50000 | 300 to 3000 | –
